The record followed here is ChEMBL document CHEMBL4007478, “Diarylpentadienone derivatives (curcumin analogues): Synthesis and anti-inflammatory activity” (Bioorg Med Chem Lett, 2017).

A short description of data set [1]: Aqueous solubility of the compound in water at 1 mg exposed to ultrasound for 1 hr measured after 30 mins by UV-spectrophotometric method. The format is physicochemical. The following applies: for solubility at 1 h: water.
Data set [2] deals with RAW264.7. Kind of data set: Anti-inflammatory activity in mouse RAW264.7 cells assessed as inhibition of LPS-induced TNFalpha production at 20 uM by ELISA. Format: functional. (In general: An ELISA detects its analyte on a solid surface through an enzyme-linked reagent.)
For data set [3], the system named is RAW264.7. Kind of data set: Anti-inflammatory activity in mouse RAW264.7 cells assessed as inhibition of LPS-induced IL-6 production at 20 uM by ELISA. Format: functional.
Data set [4] deals with Transcription factor p65 (Mus musculus) (UniProt Q04207). Kind of data set: Inhibition of NF-kB p65 in mouse RAW264.7 cells assessed as reduction in LPS-induced COX2 expression at 0.3 ug/ml preincubated for 12 hrs followed by LPS stimulation for 3 hrs by Western blot method. Format: cell-based. Background: A western blot detects proteins with antibodies after separation by electrophoresis.
Sequence of Transcription factor p65 (Mus musculus) (Q04207 whole entry): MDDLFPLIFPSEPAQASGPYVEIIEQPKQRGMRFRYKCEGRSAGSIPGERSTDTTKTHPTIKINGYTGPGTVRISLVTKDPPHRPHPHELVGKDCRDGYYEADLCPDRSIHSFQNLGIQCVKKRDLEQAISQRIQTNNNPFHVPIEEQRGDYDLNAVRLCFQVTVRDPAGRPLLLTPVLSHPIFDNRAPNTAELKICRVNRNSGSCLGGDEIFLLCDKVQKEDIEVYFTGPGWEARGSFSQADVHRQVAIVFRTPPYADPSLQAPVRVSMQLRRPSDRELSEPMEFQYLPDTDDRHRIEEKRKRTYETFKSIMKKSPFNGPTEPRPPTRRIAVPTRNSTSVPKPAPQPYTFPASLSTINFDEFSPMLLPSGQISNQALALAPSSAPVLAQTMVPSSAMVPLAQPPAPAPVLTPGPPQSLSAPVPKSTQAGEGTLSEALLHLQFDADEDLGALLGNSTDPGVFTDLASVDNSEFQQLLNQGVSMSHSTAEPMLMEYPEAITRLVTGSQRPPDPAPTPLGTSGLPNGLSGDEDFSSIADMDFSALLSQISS

Data set [5] has the same target. In words: Inhibition of LPS-induced NF-kB p65 activation in mouse RAW264.7 cells at 0.3 ug/ml preincubated for 12 hrs followed by LPS stimulation for 3 hrs by DAPI staining based inverted fluorescence microscopic method. The format is cell-based.
Data set [6] has the same target. Kind of data set: Inhibition of NF-kB p65 in mouse RAW264.7 cells assessed as reduction in LPS-induced iNOS expression at 0.3 ug/ml preincubated for 12 hrs followed by LPS stimulation for 3 hrs by Western blot method. The format is cell-based.
Data set [7] has the same target. Kind of data set: Inhibition of LPS-induced NF-kB p65 phosphorylation in mouse RAW264.7 cells at 0.3 ug/ml preincubated for 12 hrs followed by LPS stimulation for 3 hrs by Western blot method. Format: cell-based.

SMILES strings stand for the structures. Converted amounts (≈) assume the structure as drawn. The source made the active and inactive calls. No cut-off for these calls is given here.

For the molecule `CC(C)c1ccc(C(=O)/C=C/C=C/c2ccccc2)cc1`, the solubility (usually the concentration that dissolves in the medium under given conditions) at 1 h in data set [1] was 6.78 µg/mL (≈ 24.5 µM). Same read-out and setting: for `CN(C)c1ccc(/C=C/C=C/C(=O)c2ccccc2Cl)cc1` the value was 7.55 µg/mL (≈ 24.2 µM). In the case of `COc1ccccc1/C=C/C=C/C(=O)c1cc(OC)c(OC)c(OC)c1`, the inhibition entry in the data set with RAW264.7 [2] and with RAW264.7 [3] was “Active” in each case. Further, the concentration in solution in data set [1] (solubility at 1 h) was 25.9 µg/mL (≈ 73.1 µM). Turning to `Cc1ccc(S(=O)(=O)/C=C/C#N)cc1`, the inhibition result in data set [4], in data set [5], in data set [6] and in data set [7] was “Active” in each case.

As for `O=C(/C=C/C=C/c1ccccc1)c1ccc([N+](=O)[O-])cc1`, the solubility at 1 h in data set [1] turned out to be 13.2 µg/mL (≈ 47.3 µM). The same measure, in the same setting: for `O=C(/C=C/C=C/c1ccccc1)c1ccc(F)cc1F` the value was 7.86 µg/mL (≈ 29.1 µM).

Regarding `COc1ccccc1/C=C/C=C/C(=O)c1ccc([N+](=O)[O-])cc1`, the solubility at 1 h in data set [1] amounted to 13.9 µg/mL (≈ 45.1 µM). In turn, `O=C(/C=C/C=C/c1ccccc1)c1ccccc1Cl` displayed a solubility at 1 h in data set [1] of 8.2 µg/mL (≈ 30.5 µM). In data set [1], `COc1ccccc1/C=C/C=C/C(=O)c1ccccc1Cl` displayed a solubility at 1 h of 9.45 µg/mL (≈ 31.6 µM). As for `COc1cc(C(=O)/C=C/C=C/c2ccccc2)cc(OC)c1OC`, the inhibition entry with RAW264.7 [2] and in the data set on RAW264.7 [3] was “Active” in each case. Moreover, in data set [1], the concentration in solution (solubility at 1 h) was 20.3 µg/mL (≈ 62.7 µM). With `COc1cc(/C=C/C(=O)CC(=O)/C=C/c2ccc(O)c(OC)c2)ccc1O` [CURCUMIN], the inhibition entry in the data set on RAW264.7 [2] and with RAW264.7 [3] was “Active” in each case. This molecule had a solubility in data set [1] (1 h) of 12.87 µg/mL (≈ 34.9 µM).
